Entries after “also recorded” stand apart in the source; their conditions may differ.
Key:
[1] = system: Saccharomyces sake; experiment: Paper disc agar antimicrobial activity assay (inhibitory zone); format: cell-based; conditions: paper disc 6 mm, 27 °C, 12 hours incubation, read-out: Diameter of inhibitory zone
Description: (§1) The compound (Ia) dissolved in chloroform is immersed in paper disc, diameter 6 mm, and dried on a filter paper. Microbial strains shown in Table 1 are inoculated in agar medium, and paper discs hereinabove 1) are placed thereon then incubated at the temperature shown in the Table. Diameter of inhibitory zone is measured after 12 hours incubation.

[2] = system: Staphylococcus aureus; experiment: as above; format: cell-based; conditions: paper disc 6 mm, 37 °C, 12 hours incubation, read-out: Diameter of inhibitory zone
Description: as §1

[3] = Physico-chemical properties (solubility, nature); format: physicochemical
[4] = Acute toxicity, intraperitoneal administration; conditions: mouse, in vivo, ip, mice, in physiological saline containing gum arabic, read-out: LD₅₀
Description: A compound, 1 - 5 mg, dissolved in physiological saline 0.2 ml containing gum arabic is administered intra peritoneally in mice, body weight 25 g, 10 mice in one group. LD₅₀ is over 200 mg/kg.

[5] = system: Bacillus subtilis; experiment: Paper disc agar antimicrobial activity assay (inhibitory zone); format: cell-based; parameters: key to Diameter of inhibitory zone: ±: inhibitory zone slightly observed; +: inhibitroy zone < 7mm; conditions: paper disc 6 mm, 37 °C, 12 hours incubation
Description: as §1

[6] = system: Sarcina lutea; experiment: as above; format: cell-based; parameters: key to Diameter of inhibitory zone: ±: inhibitory zone slightly observed; +: inhibitroy zone < 7mm; conditions: paper disc 6 mm, 37 °C, 12 hours incubation
Description: as §1

[7] = system: Escherichia coli; experiment: as above; format: cell-based; parameters: key to Diameter of inhibitory zone: ±: inhibitory zone slightly observed; +: inhibitroy zone < 7mm; conditions: paper disc 6 mm, 37 °C, 12 hours incubation
Description: as §1

SMILES: COC1=C(OC)C(=O)c2c(O)c3c(c(O)c2C1=O)OCO3 [Ia, 5,8-dihydroxy-2,3-dimethoxy-6,7-methylenedioxy-1,4-naphthoquinone]
- zone of inhibition at 56 µg/mL ([1]; sample density 56 μg/m ℓ): < 7 mm
- zone of inhibition at 224 µg/mL ([1]; sample density 224 μg/m ℓ): 7 mm
- zone of inhibition at 448 µg/mL ([1]; sample density 448 μg/m ℓ): 7.3 mm
- zone of inhibition at 28 µg/mL ([2]; sample density 28 μg/m ℓ): < 7 mm
- zone of inhibition at 56 µg/mL ([2]; sample density 56 μg/m ℓ): < 7 mm
- zone of inhibition at 112 µg/mL ([2]; sample density 112 μg/m ℓ): < 7 mm
- zone of inhibition at 224 µg/mL ([2]; sample density 224 μg/m ℓ): 7.7 mm
- zone of inhibition at 448 µg/mL ([2]; sample density 448 μg/m ℓ): 8.45 mm
- nature [3]: acidic substance (water soluble under alkaline conditions)
- solubility ([3]; acidic conditions, in organic solvent): soluble
- solubility ([3]; acidic conditions, in water): insoluble
- solubility ([3]; alkaline conditions, in organic solvents): insoluble
- solubility ([3]; alkaline conditions, in water): easily soluble; also recorded: easily soluble under neutral and acidic conditions in organic solvents such as methanol, acetone, ethyl acetate, chloroform or benzene; easily soluble under alkaline conditions in water
- solubility ([3]; neutral and acidic conditions, in organic solvents such as methanol, acetone, ethyl acetate, chloroform or benzene): easily soluble; also recorded: easily soluble under neutral and acidic conditions in organic solvents such as methanol, acetone, ethyl acetate, chloroform or benzene; easily soluble under alkaline conditions in water
- LD50 [4]: > 200 mg/kg
- zone of inhibition at 14 µg/mL ([5]; Bacillus subtilis, sample density 14 μg/m ℓ, read-out: Diameter of inhibitory zone): 7.1 mm
- zone of inhibition at 28 µg/mL ([5]; Bacillus subtilis, sample density 28 μg/m ℓ, read-out: Diameter of inhibitory zone): 9.5 mm
- zone of inhibition at 56 µg/mL ([5]; Bacillus subtilis, sample density 56 μg/m ℓ, read-out: Diameter of inhibitory zone): 8.6 mm
- zone of inhibition at 112 µg/mL ([5]; Bacillus subtilis, sample density 112 μg/m ℓ, read-out: Diameter of inhibitory zone): 13.3 mm
- zone of inhibition at 224 µg/mL ([5]; Bacillus subtilis, sample density 224 μg/m ℓ, read-out: Diameter of inhibitory zone): 13.3 mm
- zone of inhibition at 448 µg/mL ([5]; Bacillus subtilis, sample density 448 μg/m ℓ, read-out: Diameter of inhibitory zone): 15.5 mm
- Diameter of inhibitory zone ([5]; sample density 7 μg/m ℓ): ±**
- zone of inhibition at 56 µg/mL ([6]; Micrococcus luteus, sample density 56 μg/m ℓ, read-out: Diameter of inhibitory zone): < 7 mm
- zone of inhibition at 112 µg/mL ([6]; Micrococcus luteus, sample density 112 μg/m ℓ, read-out: Diameter of inhibitory zone): 7.4 mm
- zone of inhibition at 224 µg/mL ([6]; Micrococcus luteus, sample density 224 μg/m ℓ, read-out: Diameter of inhibitory zone): 7.4 mm
- zone of inhibition at 448 µg/mL ([6]; Micrococcus luteus, sample density 448 μg/m ℓ, read-out: Diameter of inhibitory zone): 7.4 mm
- Diameter of inhibitory zone ([6]; sample density 14 μg/m ℓ): ±
- Diameter of inhibitory zone ([6]; sample density 28 μg/m ℓ): ±
- zone of inhibition at 112 µg/mL ([7]; Escherichia coli, sample density 112 μg/m ℓ, read-out: Diameter of inhibitory zone): < 7 mm
- zone of inhibition at 224 µg/mL ([7]; Escherichia coli, sample density 224 μg/m ℓ, read-out: Diameter of inhibitory zone): < 7 mm
- zone of inhibition at 448 µg/mL ([7]; Escherichia coli, sample density 448 μg/m ℓ, read-out: Diameter of inhibitory zone): < 7 mm
- Diameter of inhibitory zone ([7]; sample density 56 μg/m ℓ): ±

Reference: patent EP0211573A1, “Novel antimicrobial active agent and its production” (NICHIREI CORPORATION, priority 1985, dated 1987)
